{"source": "patent US20050130909A1", "about": "(priority 2002, published 2005)", "key": {"Rat mass balance study": {"experiment": "Rat mass balance study", "format": "in vivo, Sprague-Dawley rats", "procedure": "Mass balance studies were conducted to determine the excretion pattern of dalbavancin following a single intravenous (IV) infusion of dalbavancin in male rats.\nWater and methanol cage washes were also collected."}, "[1]": {"test_system": "N,N′-diacetyl-Lys-D-Ala-D-Ala", "experiment": "ITC of binding to tri-peptide cell-wall analog, with and without HSA", "settings": "control ITC experiments with HSA", "procedure": "Peptide concentrations were determined by weight.\nTrans. R. Soc. Lond. Ser. A-Math. Phys. Eng. […] Wiley, (1998) p 103-111; and Cooper, A., Curr. Opin. Chem. Biol. (1999) 3, 557-563."}, "dipeptide (D-Ala-D-Ala)": {"test_system": "dipeptide (D-Ala-D-Ala)", "experiment": "ITC, preliminary experiments", "format": "binding", "settings": "absence of serum proteins"}, "Lys-D-Ala-D-Lactate": {"test_system": "Lys-D-Ala-D-Lactate", "experiment": "ITC, preliminary experiments", "format": "binding", "settings": "absence of serum proteins"}, "human albumin": {"molecular_target": "human albumin (Homo sapiens, UniProt P02768)", "sequence (P02768 25-609)": "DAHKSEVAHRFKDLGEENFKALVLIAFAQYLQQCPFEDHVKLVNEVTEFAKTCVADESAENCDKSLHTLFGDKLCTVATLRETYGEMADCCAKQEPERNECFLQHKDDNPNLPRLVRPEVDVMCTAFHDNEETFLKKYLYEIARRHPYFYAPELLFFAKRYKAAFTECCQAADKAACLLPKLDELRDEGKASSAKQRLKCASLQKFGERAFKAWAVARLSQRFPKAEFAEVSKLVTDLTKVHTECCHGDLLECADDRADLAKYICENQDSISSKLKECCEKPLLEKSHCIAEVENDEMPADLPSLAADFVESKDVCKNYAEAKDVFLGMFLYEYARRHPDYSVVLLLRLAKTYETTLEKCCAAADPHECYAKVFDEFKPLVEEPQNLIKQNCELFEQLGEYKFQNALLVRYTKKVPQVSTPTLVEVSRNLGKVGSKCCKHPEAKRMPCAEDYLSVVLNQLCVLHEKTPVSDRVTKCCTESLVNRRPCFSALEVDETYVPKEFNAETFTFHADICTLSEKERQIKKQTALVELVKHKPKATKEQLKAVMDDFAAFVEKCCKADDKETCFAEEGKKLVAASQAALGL", "experiment": "Protein binding by isothermal titration microcalorimetry (ITC)", "settings": "for Calculated percent Binding to Human albumin: albumin 6×10^−4 M assumed"}, "human α-glycoprotein": {"test_system": "human α-glycoprotein", "experiment": "Protein binding by ITC", "settings": "protein […]10^−5 M assumed"}, "[2]": {"experiment": "ESI-MS analysis of multimers in solution", "settings": "dalbavancin 0.1 mg/ml in 8:2 water:isopropanol; teicoplanin 50 and 100 μg/mL in water"}}, "data": [{"compound": "CN[C@H]1C(=O)N[C@@H]2Cc3ccc(cc3)Oc3cc4cc(c3O[C@@H]3O[C@H](C(=O)O)[C@@H](O)[C@H](O)[C@H]3NC(=O)CCCCCCCCC(C)C)Oc3ccc(cc3Cl)[C@@H](O)[C@@H]3NC(=O)[C@H](NC(=O)[C@@H]4NC(=O)[C@@H](NC2=O)c2cc(cc(O)c2Cl)Oc2cc1ccc2O)c1ccc(O)c(c1)-c1c(O[C@H]2O[C@H](CO)[C@@H](O)[C@H](O)[C@@H]2O)cc(O)cc1[C@@H](C(=O)NCCCN(C)C)NC3=O", "note": "[^3H-dalbavancin]", "values": [{"measurement": "Dose remaining in the carcass", "setting": "Rat mass balance study; 70 days post dose, mass balance study", "result": "4.5 % of the dose"}, {"measurement": "Plasma t1/2", "setting": "Rat mass balance study; rats, single IV 20 mg/kg", "result": "approximately 1 week"}]}, {"compound": "CN[C@H](CC(C)C)C(=O)N[C@H]1C(=O)N[C@@H](CC(N)=O)C(=O)N[C@H]2C(=O)N[C@H]3C(=O)N[C@H](C(=O)N[C@H](C(=O)O)c4cc(O)cc(O)c4-c4cc3ccc4O)[C@H](O)c3ccc(c(Cl)c3)Oc3cc2cc(c3O[C@@H]2O[C@H](CO)[C@@H](O)[C@H](O)[C@H]2O[C@H]2C[C@](C)(N)[C@H](O)[C@H](C)O2)Oc2ccc(cc2Cl)[C@H]1O", "note": "[vancomycin, reference compound]", "values": [{"measurement": "Binding to tri-peptide in the presence of HSA (control)", "setting": "[1]", "result": "comparable to those seen in the absence of HSA"}, {"measurement": "Binding to dipeptide (D-Ala-D-Ala)", "setting": "dipeptide (D-Ala-D-Ala)", "result": "no evidence of binding"}, {"measurement": "Binding to Lys-D-Ala-D-Lactate", "setting": "Lys-D-Ala-D-Lactate", "result": "no evidence of binding"}]}, {"compound": "Teicoplanin [reference compound]", "values": [{"measurement": "Calculated percent Binding to Human albumin", "setting": "human albumin; antibiotic 1 μM", "result": 98.3, "unit": "%"}, {"measurement": "Calculated percent Binding to Human albumin", "setting": "human albumin; antibiotic 10 μM", "result": 98.3, "unit": "%"}, {"measurement": "Calculated percent Binding to Human albumin", "setting": "human albumin; antibiotic 100 μM", "result": 98.0, "unit": "%"}, {"measurement": "Binding stoichiometry antibiotic:protein", "setting": "human albumin; binding stoichiometry modeling of ITC data", "result": "1:1 binding"}, {"measurement": "Calculated percent Binding to Human α-glycoprotein", "setting": "human α-glycoprotein; antibiotic 1 μM", "result": 9.6, "unit": "%"}, {"measurement": "Calculated percent Binding to Human α-glycoprotein", "setting": "human α-glycoprotein; antibiotic 10 μM", "result": 9.1, "unit": "%"}, {"measurement": "Calculated percent Binding to Human α-glycoprotein", "setting": "human α-glycoprotein; antibiotic 100 μM", "result": 6.0, "unit": "%"}, {"measurement": "Multimers in solution", "setting": "[2]", "result": "does not show multimeric complexes in solution"}]}]}
